Data on two molecules can be found in patent publication US9943509B2, “Methods, compounds, and compositions for the treatment of musculoskeletal diseases” (UNIVERSITY OF SOUTHERN CALIFORNIA, priority 2013, dated 2018).

“Also recorded” adds a separate entry of the source.

Assay [1] has as its system Dmd^mdx mice. Briefly: Weights test of forelegs grip strength (grip score). The assay is classed as in vivo, mouse. How it is done:
FIG. 2: Performance on the weights test and calculation of grip score [Deacon, 2013] allowed a measure of forepaw grip strength was recorded following 9 weeks of treadmill exercise (12-15 m/min 3 times per week) and treatment. Six different subcutaneously delivered treatment groups (n=6/group) were evaluated—wild-type (WT) C57BL/10SnJ control mice plus five groups of Dmd^mdx (C57BL/10ScSn-Dmd^mdx/J) mice: vehicle (saline/Tween 20), A(1-7) 0.5 mg/kg/day, and Compound 7 at three doses (0.5, 1.0, and 2.0 mg/kg/day).
(§1) Effect of administration of a non-peptidic small molecule Mas agonist (“Mas agonist”), Compound 7, once daily by subcutaneous injection for 10 weeks in comparison with Angiotensin (1-7), a peptide shown in the literature to improve outcomes in mdx mice.
(§2) Test Articles: (1) Compound 7 in Tween in saline (0.5, 1 or 2 mg/kg/day); (2) A(1-7) in saline (0.5 mg/kg/day)
Methods: 10 weeks old male Dmd^mdx mice were exercised at 12-15 m/min for 30 min 3 times a week for 10 weeks. […]
If the mouse is unsuccessful at lifting a particular weight for 3 seconds in all 3 attempts then the weight lower than the current weight was recorded as the last successful weight lifted by the mouse. The number of seconds (0 or 1 or 2) was recorded for the highest weight the mouse can lift. […]

The test system of assay [2] is Dmd^mdx mice. Nature of the assay: Histological evaluation of H&E stained diaphragm. The assay is classed as in vivo, mouse. As to conditions: subcutaneous, Compound 7 0.5, 1.0, 2.0 mg/kg/day, A(1-7) 0.5 mg/kg/day, 9 weeks, 5 random 40× fields, vs saline. How it is done: FIG. 4: Histological evaluation: Six different subcutaneously delivered treatment groups (n=6/group) were evaluated—wild-type (WT) C57BL/10SnJ control mice plus five groups of Dmd^mdx (C57BL/10ScSn-Dmd^mdx/J) mice: vehicle (saline/Tween 20), A(1-7) 0.5 mg/kg/day, and Compound 7 at three doses (0.5, 1.0, and 2.0 mg/kg/day). At necropsy, following 9 weeks of treadmill exercise (12-15 m/min 3 times per week) and treatment, diaphragms were collected, fixed for 2 days in foramalin, paraffin embedded, sectioned, and H&E stained.
FIG. 5: Histological evaluation: H&E stained diaphragm section, prepared as described in FIG. 4, were analyzed by for degenerating and regenerating fibers as well as inflammation. For each animal (n=6 per treatment group) 5 random 40× fields were taken across the diaphragm section and analyzed. (A) Degenerating fibers were counted as deadened fibers co-localized with an open space. […] Compound 7 across the dosage was similar to Dmd^mdx mice treated with A(1-7). (B) The number of regenerating fibers per field were counted as healthy fibers appearing with basophilic staining. […] (C) Inflammation was quantified as loci of 10 or more inflammatory cells.
(§3) Methods: 10 weeks old male Dmd^mdx mice were exercised at 12-15 m/min for 30 min 3 times a week for 10 weeks. The absence of dystrophin in Dmd^mdx mice produces a vastly different phenotype than dystrophin deficiency in humans does [De Luca et al., 2003]. […] In this study, 10 weeks of exercise during treatment was used. There were six different treatment groups—Wild Type plus five groups of Dmd^mdx mice: Vehicle, Compound 7 0.5 mg/kg/day, Compound 7 1 mg/kg/day, Compound 7 2.0 mg/kg/day, and 0.5 mg/kg/day Angiotensin (1-7).
Necropsy: At the conclusion of the 9-week observation period (19 weeks of age), all animals were euthanized, and tissue samples and bone marrow (below) were collected. The tissues collected were the diaphragm, gastrocnemius muscle, soleus muscle, tibialis anterior muscle, plantaris muscle and heart. The gastrocnemius muscle, soleus muscle, tibialis anterior muscle, plantaris muscle from the left leg as well as the diaphragm and heart were fixed in formalin and stored in 70% EtOH for hematoxylin and eosin (H&E) staining.
Histological Evaluation of the Diaphragm: The diaphragm was embedded in paraffin, sectioned and stained by H & E (hematoxylin and eosin). The parameters were assessed include (1) the number of regenerating fibers as defined by basophilic fibers; (2) number of degenerating fibers and the number of inflammatory loci (clusters of 10 or more inflammatory cells). Five random 40× fields per diaphragm were evaluated.

Assay [3] has as its system Dmd^mdx mice. Briefly: Bone marrow mesenchymal stem cell (MSC) counts by CFU-F assay after treatment. The assay is classed as in vivo, mouse. Conditions: subcutaneous, Compound 7 0.5, 1.0 and 2.0 mg/kg/day, A(1-7) 0.5 mg/kg, 9 weeks, femur marrow cultured 8 days, vs vehicle. How it is done:
FIG. 3: Six different subcutaneously delivered treatment groups (n=6/group) were evaluated—wild-type (WT) C57BL/10SnJ control mice plus five groups of Dmd^mdx (C57BL/10ScSn-Dmd^mdx/J) mice: vehicle (saline/Tween 20), A(1-7) 0.5 mg/kg/day, and Compound 7 at three doses (0.5, 1.0, and 2.0 mg/kg/day). At necropsy, following 9 weeks of treadmill exercise (12-15 m/min 3 times per week) and treatment, bone marrow was collected from both femurs, cultured 8 days, and mesenchymal stem cell (MSC) counts were recorded.
as §3
Necropsy: At the conclusion of the 9-week observation period (19 weeks of age), all animals were euthanized, and tissue samples and bone marrow (below) were collected. The tissues collected were the diaphragm, gastrocnemius muscle, soleus muscle, tibialis anterior muscle, plantaris muscle and heart. […]

Assay [4] deals with Dmd^mdx mice. Nature of the assay: Inverted grid test of grip strength (hang time) in treadmill-exercised mice. Type of assay: in vivo, mouse. How it is done: FIG. 1: Inverted Grid Test: Mouse hang times were recorded on an inverted grid test of grip strength following 8 weeks of treadmill exercise (12-15 m/min 3 times per week) and treatment. Six different subcutaneously delivered treatment groups (n=6/group) were evaluated—wild-type (WT) C57BL/10SnJ control mice plus five groups of Dmd^mdx (C57BL/10ScSn-Dmd^mdx/J) mice: vehicle (saline/Tween 20), A(1-7) 0.5 mg/kg/day, and Compound 7 at three doses (0.5, 1.0, and 2.0 mg/kg/day).
as §1, §2
Methods: 10 weeks old male Dmd^mdx mice were exercised at 12-15 m/min for 30 min 3 times a week for 10 weeks. The absence of dystrophin in Dmd^mdx mice produces a vastly different phenotype than dystrophin deficiency in humans does [De Luca et al., 2003]. […] In this study, 10 weeks of exercise during treatment was used. There were six different treatment groups—Wild Type plus five groups of Dmd^mdx mice: Vehicle, Compound 7 0.5 mg/kg/day, Compound 7 1 mg/kg/day, Compound 7 2.0 mg/kg/day, and 0.5 mg/kg/day Angiotensin (1-7). […]

Assay [5] has as its system mice chronically infused with AngII. As to conditions: AngII/A(1-7) co-treatment vs AngII infusion alone; Cisternas et al., 2015; cited from earlier work.
Assay [6] concerns Dmd^mdx and Sgcd−/− mouse models of muscular dystrophy. Conditions: Dmd^mdx and Sgcd−/− mice; Acuña et al., 2014; Sabharwal et al., 2012; cited from earlier work.
The test system of assay [7] is cardiac fibrogenesis and remodeling. As to conditions: Iwata et al., 2005; Grobe et al., 2007; cited from earlier work.

Regarding `CCCCOC(=O)NS(=O)(=O)c1ccc(OC(F)(F)F)cc1-c1ccc(Cn2ccnc2)cn1` [Compound 7, butyl ((2-(5-((1H-imidazol-1-yl)methyl)pyridin-2-yl)-4-(trifluoromethoxy)phenyl)sulfonyl)carbamate], in the assay with Dmd^mdx mice [1] (Compound 7 0.5, 1 or 2 mg/kg/day vs A(1-7) 0.5 mg/kg/day), the “weights test of grip strength, comparison with A(1-7)” value is “superior to A(1-7)”. Moreover, the “muscle strength by the weights test of grip strength” value in the assay on Dmd^mdx mice [1] (once daily subcutaneous, treadmill exercise, summary of FIG. 2) was “increased muscle strength”. Besides, in the assay with Dmd^mdx mice [2], the “inflammation: loci of 10 or more inflammatory cells in diaphragm” value is reported as “significantly increased number of regenerating fibers”, the “number of degenerating fibers in diaphragm” value is recorded as “reduction in the number of degenerative fibers; also recorded: reduce degenerating fibers” and the “number of regenerating (basophilic) fibers per field in diaphragm” value was “significantly increased number of regenerating fibers”. Besides, the “bone marrow MSC counts” value in the assay on Dmd^mdx mice [3] is “increased bone marrow MSC counts”. Also, in the assay on Dmd^mdx mice [4] (once daily subcutaneous, treadmill exercise, summary of FIG. 1), the “muscle strength by the inverted grid test” value was “increased muscle strength”. For the same molecule, the “hang time on the inverted grid test” value in the assay on Dmd^mdx mice [4] (subcutaneous 2.0 mg/kg/day, 8 weeks of treadmill exercise and treatment, vs vehicle treated Dmd^mdx, n=6/group, t-test) is listed as “increase in hang time”.
As to “Asp-Arg-Val-Tyr-Ile-His-Pro (DRVYIHP; printed: Asp-Arg-Val-Tyr-Ile-His-Pro) [A(1-7), endogenous Mas receptor heptapeptide ligand, purchased from BACHEM]”, in assay [5], the “gastrocnemius muscle fiber diameter” value was “prevented a decrease in gastrocnemius muscle fiber diameter” and the “performance on the weights test” value is “increased”. Besides, the “number of degenerating fibers in diaphragm” value in the assay with Dmd^mdx mice [2] is on record as “reduction in the number of degenerative fibers”. The “bone marrow MSC counts” value with Dmd^mdx mice [3] is on record as “increased bone marrow MSC counts”. For the same molecule, in assay [6], the fibrosis result is on record as “reduced fibrosis”, the “measures of muscle strength” value was “improved measures of muscle strength” and the oxidative stress result is on record as “reduced”. For the same molecule, the “cardiac fibrogenesis and remodeling (interstitial myocardial fibrosis, myocyte hypertrophy)” value in assay [7] is “block cardiac fibrogenesis and remodeling”.
